Counter-ions that a name gives are not always drawn.
Tests used:
[1] = target: Albumin (Homo sapiens, UniProt P02768); assay: Drug displacement of bilirubin from albumin / interference, Bf measured with one-step cartridges; type: in vitro ADME; settings: percent increase of Bf for the 3x drug concentration relative to no drug; negative value = interference with the Bf sensor
Description: Premature infants who are at high risk for bilirubin neurotoxicity are of particular concern because NICU infants frequently receive medications. [Hsieh et al. Medication use in the neonatal intensive care unit. Am J Perinatol.

[2] = Interference of conjugated bilirubin (ditaurobilirubin) with Bf measurement, UBCheck vs Arrows UA-2; set-up: species or system human
Method: The potential interference of conjugated bilirubin with the bilirubin probes is determined by measuring the effect of ditaurobilirubin on the ability of the UBCheck to measure Bf accurately. We also compared the UBCheck results with measurements using the Arrows UB analyzer UA-2 method. The measurements are performed by spiking neonatal serum with unconjugated bilirubin to yield a Bf of approximately 10 nM and then titrating the spiked sample with ditaurobilirubin up to 20 mg/dl (FIG. 7). At each step Bf is measured by UBCheck and Arrows and the direct (conjugated) bilirubin concentration is determined using a Sigma direct bilirubin kit. At zero ditaurobilirubin both UBCheck and Arrows yield Bf of 10 nM but the direct bilirubin measurement yields a non-zero value of about 0.5 mg/dl (FIG. 7). With increasing concentrations of ditaurobilirubin UBCheck is unchanged but Arrows increases starting at about 0.5 mg/dl of ditaurobilirubin and then increases rapidly until 4 mg/dl ditaurobilirubin where the Arrow's assay saturates at Bf ≥50 nM. In contrast, the UBCheck only begins to increase at 4 mg/dl ditaurobilirubin where its Bf increase to about 12 nM, a 20% increase from the initial 10 nM level, and only at 20 mg/dl ditaurobilirubin does Bf increase to 33 nM.

[3] = Calibration of free NIR probe/sensor by bilirubin titration (cuvette fluorometry, fit with equation 1); type: binding; settings: for Qs (Rm/Ro): degree to which the probe is quenched by bilirubin binding, effect of fluorophore position; for Kd: effect of fluorophore (cysteine) position, responder probe labeled with 700DX-maleimide
Description: Embodiments provided herein are directed to methods of calibrating the bilirubin probes by mixing in an aqueous media the sensor with samples of bilirubin of increasing total bilirubin concentrations (BT), measuring the ratio of fluorescence intensities R of the sensor at each concentration, and determining the calibration parameters (Kd, Rm, and Ro) from the measured fluorescence by fitting with the equation (1), wherein R is the measured fluorescence ratio (Iλ1/Iλ2), where hi is the fluorescence intensity from the first fluorophore at wavelength λ1 and Iλ2 is the fluorescence intensity from the second fluorophore at wavelength λ2, both λ1 and λ2 have background subtracted, and Ro is the ratio in the absence of bilirubin. BT is the total bilirubin concentration and PT is the concentration of the sensor, r is the Iλ2/Iλ1 ratio of the bilirubin sensitive probe's fluorescence in the absence of the second fluorophore, Kd is the equilibrium dissociation constant of the sensor and Rm is the ratio R extrapolated to infinite BT. Equation (1) is used in some embodiments rather than equation (5) of U.S. Pat. No. 9,529,003 when Rm is >0.
Also described are methods for calibrating and using a bilirubin sensor described herein so that Bf concentrations can be determined in approximately 5 μl of undiluted blood samples in a single step. These small volume blood samples are applied to the disposable plastic microfluidic cartridges containing the dried bilirubin ratio sensor. The bilirubin sensor containing cartridges are preferably used for a single measurement and the calibration parameters (Kd, Rm, Ro) must be determined within a “lot” of identically manufactured cartridges. The calibration is performed by titrating a sufficient number of cartridges with aqueous samples of increasing well-defined Bf levels. Because plastics bind unbound bilirubin and because surface to volume ratio in the microfluidics channel is large, the calibration Bf samples must be highly buffered by complexes with albumin. The Bf concentrations of each complex are determined by measuring each by cuvette fluorometry using a calibrated sensor free in aqueous solutions. The free sensor is calibrated by titration with aqueous solutions of bilirubin where the concentrations of these unbound bilirubin solutions are determined by absorbance. The free probe's response (R values versus Bf concentrations) are used to determine the free sensor's calibration (Kd, Rm, Ro) (equation 1). The calibrated free sensor mixed with samples of each of the BR:HSA complexes is used to determine the Bf concentrations of each complexes by cuvette fluorometry using equation 2. These calibrated complexes are used to determine the binding parameters of the disposable cartridges including the equilibrium dissociation constant (Kd), the minimum fluorescence ratio (Rm) and the initial ratio (Ro) under defined conditions, of temperature, pH, and solution composition, suitable for blood samples. Binding isotherms are performed in aqueous buffer by measuring the change in fluorescence of the bilirubin sensor in response to increasing bilirubin concentrations (“titration data”). The set of fluorescence responses at each bilirubin concentration are fitted with an appropriate equation (“calibration equation (3)”) that correctly describes the fluorescence response as a function of the Bf concentration, the, specific spectroscopic characteristics, and the Kd.
All responder probes labeled with LICOR 700DX-maleimide and non-responder probes labeled with LICOR 800CW-maleimide probes in Tables 1 and 2, respectively have qualitatively similar dependencies on Bf. The probes differ mostly in protein expression, binding parameters (Kd, Ro and Rm) and stability. […] Although the non-responders are not characterized by bilirubin binding parameters, the emission spectrum of the 800CW-maleimide is sensitive to specific substitutions that can alter the LICOR 700DX-maleimide intensities. […]

Chain of Albumin (P02768 25-609): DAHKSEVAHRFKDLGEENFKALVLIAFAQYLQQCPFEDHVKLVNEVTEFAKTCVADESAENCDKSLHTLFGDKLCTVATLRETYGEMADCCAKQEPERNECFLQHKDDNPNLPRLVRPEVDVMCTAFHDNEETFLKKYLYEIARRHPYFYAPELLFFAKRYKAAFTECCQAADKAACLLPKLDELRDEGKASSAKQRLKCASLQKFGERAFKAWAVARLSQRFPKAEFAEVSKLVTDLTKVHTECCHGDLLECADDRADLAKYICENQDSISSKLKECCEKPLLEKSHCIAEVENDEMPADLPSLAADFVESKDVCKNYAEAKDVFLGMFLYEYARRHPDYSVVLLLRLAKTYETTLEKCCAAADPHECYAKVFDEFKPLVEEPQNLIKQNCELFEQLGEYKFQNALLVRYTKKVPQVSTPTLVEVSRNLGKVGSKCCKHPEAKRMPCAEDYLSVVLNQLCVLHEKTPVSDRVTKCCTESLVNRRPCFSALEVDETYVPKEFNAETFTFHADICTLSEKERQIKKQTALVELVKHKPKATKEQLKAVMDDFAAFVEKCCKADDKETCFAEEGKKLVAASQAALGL

| Molecule | Displacement or Interference [1] [%] | Kd [3] [nM] | Qs (Rm/Ro) [3] | also measured |
| --- | --- | --- | --- | --- |
| C[C@@H]1[C@H](O)[C@@H](C)/C=C/C=C/C=C/C=C/C=C/C=C/C=C/[C@H](O[C@@H]2O[C@H](C)[C@@H](O)[C@H](N)[C@@H]2O)C[C@@H]2O[C@](O)(C[C@@H](O)C[C@@H](O)[C@H](O)CC[C@@H](O)C[C@@H](O)CC(=O)O[C@H]1C)C[C@H](O)[C@H]2C(=O)O [Amphotericin B] | 199 |  |  |  |
| Cc1nnc(SCC2=C(C(=O)O)N3C(=O)[C@@H](NC(=O)Cn4cnnn4)[C@H]3SC2)s1 [Cefazolin sodium salt] | 524 |  |  |  |
| CO/N=C(\C(=O)N[C@@H]1C(=O)N2C(C(=O)O)=C(COC(C)=O)CS[C@H]12)c1csc(N)n1 [Cefotaxime] | 157 |  |  |  |
| Cc1onc(-c2ccccc2)c1C(=O)N[C@@H]1C(=O)N2[C@@H]1SC(C)(C)[C@@H]2C(=O)O [Oxacillin] | 616 |  |  |  |
| ditaurobilirubin |  |  |  | Bf (assay saturates) ([2]; Arrows UA-2, samples diluted 52-fold, 4 mg/dl ditaurobilirubin): ≥ 50 nM; increase of Bf from the initial 10 nM level ([2]; UBCheck, 4 mg/dl ditaurobilirubin): 20%; Bf ([2]; UBCheck, 4 mg/dl ditaurobilirubin, neonatal serum spiked to Bf of approximately 10 nM): about 12 nM; Bf ([2]; UBCheck, 20 mg/dl ditaurobilirubin): 33 nM |
| 98C-C2XH11-700DXM: rIFABP mutein MGI-KR14-14R 18L 27A 38V 60R 73F 98C 106L 115R 117D 131D-C2XH11 labeled with LICOR 700DX-maleimide (protein, LICOR 700DX-maleimide label; mutated bf sensitive probe, rIFABP mutein MGI-KR14-14R 18L 27A 38V 60R 73F 98C 106L 115R 117D 131D-C2XH11 labeled with LICOR 700DX-maleimide) MGIAFDGTWRVDRNENRERFLERMGINVVARRLGAHDNLRVTITQEGNRFTVRESSNFRNIDRVFELGVDFAYSLFDGTELTGTWTMEGNRLVGRFRRVDCGRELIAVLEISGNELIRTDTYEGVEARRIFRRDRGAASHHHHHHSHRATPNTSPHHHHHHH |  | 13 | 0.03 |  |
| 27C-C2XH11-700DXM: rIFABP mutein MGI-KR14-14R 18L 27C 38V 60R 73F 106L 115R 117D 131D-C2XH11 labeled with LICOR 700DX-maleimide (protein, C2XH11 tag; LICOR 700DX-maleimide label; mutated bf sensitive probe, rIFABP mutein MGI-KR14-14R 18L 27C 38V 60R 73F 106L 115R 117D 131D-C2XH11 labeled with LICOR 700DX-maleimide) MGIAFDGTWRVDRNENRERFLERMGINVVCRRLGAHDNLRVTITQEGNRFTVRESSNFRNIDRVFELGVDFAYSLFDGTELTGTWTMEGNRLVGRFRRVDNGRELIAVLEISGNELIRTDTYEGVEARRIFRRDRGAASHHHHHHSHRATPNTSPHHHHHHH |  | 30 | 0.21 |  |
| 24C- C2XH11-700DXM: rIFABP mutein MGI-KR14-14R 18L 24C 27A 38V 60R 73F 106L 115R 117D 131D-C2XH11 labeled with LICOR 700DX-maleimide (protein, C2XH11 tag; LICOR 700DX-maleimide label; mutated bf sensitive probe, rIFABP mutein MGI-KR14-14R 18L 24C 27A 38V 60R 73F 106L 115R 117D 131D-C2XH11 labeled with LICOR 700DX-maleimide) MGIAFDGTWRVDRNENRERFLERMGICVVARRLGAHDNLRVTITQEGNRFTVRESSNFRNIDRVFELGVDFAYSLFDGTELTGTWTMEGNRLVGRFRRVDNGRELIAVLEISGNELIRTDTYEGVEARRIFRRDRGAASHHHHHHSHRATPNTSPHHHHHHH |  | 44 | 0.14 |  |
| 25C-C2XH11-700DXM: rIFABP mutein MGI-KR14-14R 18L 25C 27A 38V 60R 73F 106L 115R 117D 131D-C2XH11 labeled with LICOR 700DX-maleimide (protein, C2XH11 tag; LICOR 700DX-maleimide label; mutated bf sensitive probe, rIFABP mutein MGI-KR14-14R 18L 25C 27A 38V 60R 73F 106L 115R 117D 131D-C2XH11 labeled with LICOR 700DX-maleimide) MGIAFDGTWRVDRNENRERFLERMGINCVARRLGAHDNLRVTITQEGNRFTVRESSNFRNIDRVFELGVDFAYSLFDGTELTGTWTMEGNRLVGRFRRVDNGRELIAVLEISGNELIRTDTYEGVEARRIFRRDRGAASHHHHHHSHRATPNTSPHHHHHHH |  | 12 | 0.27 |  |
| 26C-C2XH11-700DXM: rIFABP mutein MGI-KR14-14R 18L 26C 27A 38V 60R 73F 106L 115R 117D 131D-C2XH11 labeled with LICOR 700DX-maleimide (protein, C2XH11 tag; LICOR 700DX-maleimide label; mutated bf sensitive probe, rIFABP mutein MGI-KR14-14R 18L 26C 27A 38V 60R 73F 106L 115R 117D 131D-C2XH11 labeled with LICOR 700DX-maleimide) MGIAFDGTWRVDRNENRERFLERMGINVCARRLGAHDNLRVTITQEGNRFTVRESSNFRNIDRVFELGVDFAYSLFDGTELTGTWTMEGNRLVGRFRRVDNGRELIAVLEISGNELIRTDTYEGVEARRIFRRDRGAASHHHHHHSHRATPNTSPHHHHHHH |  | 21 | 0.36 |  |

The next lines start with results.

| Displacement or Interference [1] [%] | Kd [3] [nM] | Molecule | Qs (Rm/Ro) [3] | also measured |
| --- | --- | --- | --- | --- |
| 76 |  | CC(C)(O/N=C(\C(=O)N[C@@H]1C(=O)N2C(C(=O)[O-])=C(C[n+]3ccccc3)CS[C@H]12)c1csc(N)n1)C(=O)O [Ceftazidime sodium salt] |  |  |
| 1626 |  | NS(=O)(=O)c1cc2c(cc1Cl)N=CNS2(=O)=O [Chlorothiazide] |  |  |
| 820 |  | NS(=O)(=O)c1cc(C(=O)O)c(NCc2ccco2)cc1Cl [Furosemide] |  |  |
| −98 |  | CC(=O)S[C@@H]1CC2=CC(=O)CC[C@]2(C)[C@H]2CC[C@@]3(C)[C@@H](CC[C@@]34CCC(=O)O4)[C@H]12 [Spironolactone] |  |  |
